{
  "source": "patent US6268181A",
  "about": "“Methods for producing a potentiator of Bacillus pesticidal activity” (Valent BioSciences, Corporation, priority 1998, dated 2001)",
  "key": {"Phytophthora medicaginis": {"tested_on": "Phytophthora medicaginis", "conditions": "cited from earlier work"}, "Spodoptera exigua": {"tested_on": "Spodoptera exigua", "assay": "Spodoptera exigua micro-bioassay (potentiation of Bt Cry protein by Ia)", "format": "in vivo", "conditions": "for Mortality: after 2 days", "description": "Activity is monitored by a Spodoptera exigua micro-bioassay, and purity is determined by capillary electrophoresis. […] The trays containing the various samples are air dried. Two to four 2nd or early 3rd instar Spodoptera exigua are added to the wells containing the dried sample. The wells are sealed with mylar poked with holes and are incubated for 2-3 days at 30° C. Degree of stunting and percent mortality are then recorded. Typically, 5 replicate wells are run for each sample.\n*Mortality = # insects dead/# total insects after 2 days\n.dagger.Stunt score is defined by the average size of the live insect\nlarvae at the end of the bioassay: 4.0 = untreated control, 3.0 = 75% size\nof untreated control, 2.0 = 50% size of untreated control, 1.0 = 25% size\nof untreated control, 0.0 = no growth or size unchanged from start of […]"}, "[1]": {"conditions": "Table II, 120 μg/ml, without Ia"}, "[2]": {"conditions": "Table II, 240 μg/ml, without Ia"}},
  "data": [
    {"molecule": "NC(=O)NCC(NC(=O)C(O)C(O)C(N)C(O)CC(O)C(N)CO)C(N)=O", "note": "(stereo not shown) [zwittermicin A]", "values": [
      {"measurement": "infection of alfalfa", "setting": "Phytophthora medicaginis; alfalfa", "result": "reduces the infection"},
      {"measurement": "growth of Phytophthora medicaginis", "setting": "Phytophthora medicaginis; plant pathogen", "result": "inhibits the growth"}
    ]},
    {"molecule": "CryIA(c): Bt crystal delta-endotoxin; truncated in Table I, full-length (130 kDa) in Table II", "values": [
      {"measurement": "Stunt Score", "setting": "Spodoptera exigua; Table II, 0.8 μg/ml, with Ia", "result": 1.6},
      {"measurement": "Mortality", "setting": "Spodoptera exigua; Table II, 0.8 μg/ml, with Ia", "result": "2/5"},
      {"measurement": "Stunt Score", "setting": "Spodoptera exigua; Table II, 3 μg/ml, with Ia", "result": 1.0},
      {"measurement": "Mortality", "setting": "Spodoptera exigua; Table II, 3 μg/ml, with Ia", "result": "4/5"},
      {"measurement": "Stunt Score", "setting": "Spodoptera exigua; Table II, 15 μg/ml, with Ia", "result": 0.0},
      {"measurement": "Mortality", "setting": "Spodoptera exigua; Table II, 15 μg/ml, with Ia", "result": "4/5"},
      {"measurement": "Mortality", "setting": "Spodoptera exigua; Table II, 30 μg/ml, with Ia", "result": "5/5"},
      {"measurement": "Stunt Score", "setting": "Spodoptera exigua; Table II, 30 μg/ml, without Ia", "result": 4.0},
      {"measurement": "Mortality", "setting": "Spodoptera exigua; Table II, 30 μg/ml, without Ia", "result": "0/5"},
      {"measurement": "Mortality", "setting": "Spodoptera exigua; Table II, 60 μg/ml, with Ia", "result": "5/5"},
      {"measurement": "Stunt Score", "setting": "Spodoptera exigua; Table II, 60 μg/ml, without Ia", "result": 2.2},
      {"measurement": "Mortality", "setting": "Spodoptera exigua; Table II, 60 μg/ml, without Ia", "result": "0/5"},
      {"measurement": "Stunt Score", "setting": "Spodoptera exigua; [1]", "result": 2.2},
      {"measurement": "Mortality", "setting": "Spodoptera exigua; [1]", "result": "0/5"},
      {"measurement": "Stunt Score", "setting": "Spodoptera exigua; [2]", "result": 0.5},
      {"measurement": "Mortality", "setting": "Spodoptera exigua; [2]", "result": "1/5"},
      {"measurement": "concentration giving same mortality/stunt score as protein with Ia", "setting": "Spodoptera exigua; protein alone, full-length CryIA(c), CryII, CryIC", "result": 240, "unit": "µg/mL"},
      {"measurement": "Mortality", "setting": "Spodoptera exigua; truncated Bt protein, OD280 0.0006, with Ia", "result": "1/5"},
      {"measurement": "Stunt Score", "setting": "Spodoptera exigua; truncated Bt protein, OD280 0.0006, with Ia, 4.0 = untreated control, 0.0 = no growth", "result": 1.0},
      {"measurement": "Mortality", "setting": "Spodoptera exigua; truncated Bt protein, OD280 0.0012, with Ia", "result": "0/5"},
      {"measurement": "Stunt Score", "setting": "Spodoptera exigua; truncated Bt protein, OD280 0.0012, with Ia, 4.0 = untreated control, 0.0 = no growth", "result": 1.0},
      {"measurement": "Mortality", "setting": "Spodoptera exigua; truncated Bt protein, OD280 0.0025, with Ia", "result": "2/5"},
      {"measurement": "Stunt Score", "setting": "Spodoptera exigua; truncated Bt protein, OD280 0.0025, with Ia, 4.0 = untreated control, 0.0 = no growth", "result": 2.0},
      {"measurement": "Mortality", "setting": "Spodoptera exigua; truncated Bt protein, OD280 0.005, with Ia", "result": "1/5"},
      {"measurement": "Stunt Score", "setting": "Spodoptera exigua; truncated Bt protein, OD280 0.005, with Ia, 4.0 = untreated control, 0.0 = no growth", "result": 0.0},
      {"measurement": "Mortality", "setting": "Spodoptera exigua; truncated Bt protein, OD280 0.010, with Ia", "result": "0/5"},
      {"measurement": "Stunt Score", "setting": "Spodoptera exigua; truncated Bt protein, OD280 0.010, with Ia, 4.0 = untreated control, 0.0 = no growth", "result": 0.2},
      {"measurement": "Mortality", "setting": "Spodoptera exigua; truncated Bt protein, OD280 0.020, with Ia", "result": "1/5"},
      {"measurement": "Stunt Score", "setting": "Spodoptera exigua; truncated Bt protein, OD280 0.020, with Ia, 4.0 = untreated control, 0.0 = no growth", "result": 0.0},
      {"measurement": "Mortality", "setting": "Spodoptera exigua; truncated Bt protein, OD280 0.020, without Ia", "result": "0/5"},
      {"measurement": "Stunt Score", "setting": "Spodoptera exigua; truncated Bt protein, OD280 0.020, without Ia, 4.0 = untreated control, 0.0 = no growth", "result": 2.8},
      {"measurement": "Mortality", "setting": "Spodoptera exigua; truncated Bt protein, OD280 0.040, without Ia", "result": "0/5"},
      {"measurement": "Stunt Score", "setting": "Spodoptera exigua; truncated Bt protein, OD280 0.040, without Ia, 4.0 = untreated control, 0.0 = no growth", "result": 2.6},
      {"measurement": "Mortality", "setting": "Spodoptera exigua; truncated Bt protein, OD280 0.075, without Ia", "result": "0/5"},
      {"measurement": "Stunt Score", "setting": "Spodoptera exigua; truncated Bt protein, OD280 0.075, without Ia, 4.0 = untreated control, 0.0 = no growth", "result": 3.4},
      {"measurement": "OD280 giving same stunt score as protein with Ia", "setting": "Spodoptera exigua; truncated CryIA(c), tested alone", "result": 0.075, "unit": "OD280"},
      {"measurement": "OD280 giving same stunt score as protein alone", "setting": "Spodoptera exigua; truncated CryIA(c), with Ia", "result": 0.0006, "unit": "OD280"},
      {"measurement": "concentration giving same mortality/stunt score as protein alone", "setting": "Spodoptera exigua; with Ia, full-length CryIA(c), CryII inclusions, CryIC inclusions", "result": 0.75, "unit": "µg/mL"}
    ]}
  ]
}
